Results taken from paper PMC6107088 (Inorganic chemistry, 2018).

Key:
[1] = target: yeast iso-1 cytochrome c WT* (pseudo-wild-type), ferric (Saccharomyces cerevisiae, UniProt P00044, C108S/K78A); assay: equilibrium titration, Soret absorbance at […] and […] nm, one-site fit; assay type: binding
[2] = target: yeast iso-1 cytochrome c WT* (pseudo-wild-type), ferric (Saccharomyces cerevisiae, UniProt P00044, C108S/K78A/K79A/K85G/M86K); assay: as above; assay type: binding
Lys80 = Lys80 (UniProt position 86, IPGTGKAFGGL); assay: UV-vis; conditions: ferric protein; Lys80/His18-ligated haem converting to H2O/His-ligated haem; cited from earlier work

Chain of yeast iso-1 cytochrome c WT* (pseudo-wild-type), ferric (Saccharomyces cerevisiae, UniProt P00044, C108S/K78A/K79A/K85G/M86K) (P00044 2-109 K78A/K79A/K85G/M86K/C108S): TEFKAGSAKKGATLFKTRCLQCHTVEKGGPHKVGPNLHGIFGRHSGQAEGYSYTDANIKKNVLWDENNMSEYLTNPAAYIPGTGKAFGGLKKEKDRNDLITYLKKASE
Chain of yeast iso-1 cytochrome c WT* (pseudo-wild-type), ferric (Saccharomyces cerevisiae, UniProt P00044, C108S/K78A) (P00044 2-109 K78A/C108S): as the sequence (P00044 2-109 K78A/K79A/K85G/M86K/C108S) above, with A78K, G84K, K85M counted along it

c1c[nH]cn1 [imidazole]
Kd [1]: 2780 µM
Kd [2]: 2330 µM

iso-1 cytochrome c, M80K# (K73A/K79G/M80K in WT* background) (Saccharomyces cerevisiae; K72A;K73A;K79G;M80K;C102S)
pKa (Lys80): 4.9 ± 0.2
